Test results published in patent US12590057B2, “Crystalline complexes” (Theracryf PLC, priority 2020, dated 2026).

Experiments:
Type in all cases: physicochemical
[1] = Preliminary stability study, related substances by HPLC; details: 25° C./60% RH stability
Procedure: Analysis of samples of sulforaphane:alpha-cyclodextrin complexes as prepared herein were carried out by HPLC according to the following method: • Column—Phenomenex Gemini C18, 5 μm, 110 Å, 250×4.6 mm; • Mobile Phase A: Water (+0.1% TFA); • Mobile Phase B: Acetonitrile (+0.1% TFA); • Flow: 1.5 mL/min; • Injection Volume: 10 μL; • Column Temperature: 25° C.; • Run Time: 40 minutes; • Sample preparation—Accurately weighed and transferred about 320 mg±30 mg of the sample to a 25-mL volumetric flask, added about 15 mL of diluent (70% water, 30% acetonitrile, 0.1% TFA) and mixed until dissolved. Diluted to volume with diluent and mixed. Transferred 3-4 mL to a syringe and filtered using a 0.45 PTFE filter, discarding the first 1-2 ml, and filtered into an autosampler vial and sealed with PTFE lined cap (prepared in duplicate); • HPLC Gradient according to Table 12
Sulforaphane and certain related impurity peaks are summarised in Table 13, Characterisation of the impurities was carried out by LC-MS and ^1H-NMR. Relative Retention Times (RRT) are based on the HPLC method described above.
Samples of Form 1 (batch ref. LS19-0004-S-8002), Form 3 prepared by minimally-agitated drying (Example 5.3; batch ref. 491-PAL-18) and Form 3 prepared by continuously-agitated filter drying (Example 5B—trial 5; batch ref. 00173-005) were stored at 5° C. (Table 14) and at 25° C./60% RH (Table 15) for 8 weeks in 60 ml Duma® bottles fitted with 45 mm Duma® caps and samples were analysed by HPLC according to the above method.

[2] = Storage at high humidity and/or elevated temperature
Procedure: A sample of Example 3 (Form 3) was stored at 25° C. and 97% RH for 7 days.
A sample of Example 3 (Form 3) was stored at 40° C. and 75% RH for 7 days.

[3] = Aqueous manipulation (slurry in water, XRPD)
Procedure: Example 3—Form 3 (100 mg) was placed in a 4 ml vial, to which H2O (200 μl, 2 volumes) was added. The sample was capped and left at ambient temperature overnight. A spatula fill of the slurry was placed in a well and analysed by XRPD in transmission mode. The XRPD analysis was repeated every 5 minutes for 36 minutes on the same sample in the well. An XRPD was recorded 4 hours later too.

| SMILES | Related substances, HPLC RRT 0.56 (Dimer) ([1]; 8 wk) [% Area] | Related substances, HPLC RRT 0.60 (α-CD adduct) ([1]; 8 wk) [% Area] | Related substances, HPLC RRT 1.14 (Mixed dimer) ([1]; 8 wk) [% Area] | Related substances, HPLC RRT 1.21 (Erysolin) ([1]; 8 wk) [% Area] | Related substances, HPLC RRT 1.58 (Thioether dimer) ([1]; 8 wk) [% Area] | Related substances, Total Impurities ([1]; 8 wk) [% Area] | Related substances, HPLC RRT 0.56 (Dimer) ([1]; Initial) [% Area] | Related substances, HPLC RRT 0.60 (α-CD adduct) ([1]; Initial) [% Area] | Related substances, HPLC RRT 1.14 (Mixed dimer) ([1]; Initial) [% Area] | Related substances, HPLC RRT 1.21 (Erysolin) ([1]; Initial) [% Area] | Related substances, HPLC RRT 1.58 (Thioether dimer) ([1]; Initial) [% Area] | Related substances, Total Impurities ([1]; Initial) [% Area] | decomposition by 1H-NMR ([2]; 25° C. and 97% RH for 7 days) | form by XRPD ([2]; 25° C. and 97% RH for 7 days) | decomposition by 1H-NMR ([2]; 40° C. and 75% RH for 7 days) | form by XRPD when slurried in water ([3]; 2 volumes H2O, ambient temperature overnight, XRPD after 14 and 36 mins) | form by XRPD after slurry sample left at ambient conditions ([3]; 4 further hours at ambient conditions) |
| --- | --- | --- | --- | --- | --- | --- | --- | --- | --- | --- | --- | --- | --- | --- | --- | --- | --- |
| C[S+]([O-])CCCCN=C=S.OCC1OC2OC3C(CO)OC(OC4C(CO)OC(OC5C(CO)OC(OC6C(CO)OC(OC7C(CO)OC(OC1C(O)C2O)C(O)C7O)C(O)C6O)C(O)C5O)C(O)C4O)C(O)C3O (centres unmarked) [Form 1] | 0.20 | 0.10 | 0.06 | 0.30 | <0.05 | 0.99 | 0.19 | 0.06 | <0.05 | 0.28 | <0.05 | 0.90 |  |  |  |  |  |
| C[S+]([O-])CCCCN=C=S.OC[C@H]1O[C@@H]2O[C@H]3[C@H](O)[C@@H](O)[C@@H](O[C@H]4[C@H](O)[C@@H](O)[C@@H](O[C@H]5[C@H](O)[C@@H](O)[C@@H](O[C@H]6[C@H](O)[C@@H](O)[C@@H](O[C@H]7[C@H](O)[C@@H](O)[C@@H](O[C@H]1[C@H](O)[C@H]2O)O[C@@H]7CO)O[C@@H]6CO)O[C@@H]5CO)O[C@@H]4CO)O[C@@H]3CO [Form 3] |  |  |  |  |  |  |  |  |  |  |  |  | no decomposition was evident | converted at this very high humidity level to Form 1 | some decomposition had occurred | converted to Form 2 | converted from Form 2 to Form 1 |
